Results from patent publication US12377175B2, “Trifunctional constructs with tunable pharmacokinetics useful in imaging and anti-tumor therapies” (Cornell University, priority 2016, dated 2025).

Key:
[1] = test system: LNCaP xenograft tumor-bearing mice; test: PET/CT imaging of 66Ga-RPS ligands in LNCaP xenograft mice; format: in vivo, mouse; conditions: 66Ga PET/CT; for maximum uptake in the tumor (image-derived): over 1, 3, 6 and 24 h post injection
Method: (§1) Inoculation of mice with xenografts: All animal studies were approved by the Institutional Animal Care and Use Committee of Weill Cornell Medicine and were undertaken in accordance with the guidelines set forth by the USPHS Policy on Humane Care and Use of Laboratory Animals. Animals were housed under standard conditions in approved facilities with 12 h light/dark cycles. Food and water was provided ad libitum throughout the course of the studies. Hairless male nu/nu mice were purchased from the Jackson Laboratory. For inoculation in mice, LNCaP cells were suspended at 4×10^7 cells/mL in a 1:1 mixture of PBS:Matrigel (BD Biosciences). Each mouse was injected in the left flank with 0.25 mL of the cell suspension. The mice were imaged when the tumors reached approximately 200-400 mm^3, while biodistributions were conducted when tumors were in the range 100-400 mm^3.
Imaging of ^66Ga-RPS ligands in LNCaP xenograft mice: LNCaP xenograft tumor-bearing mice (2-3 per compound) injected intravenously with a bolus injection of 0.56-5.4 MBq (15-145 μCi) of the ^66Ga-labeled ligand. The specific activity of the tracers was in the range 14.8-47 MBq/μmol (0.4-1.27 mCi/μmol). The mice were imaged using PET/CT (Inveon™; Siemens Medical Solutions, Inc.) at 1, 3, 6 and 24 h post-injection following inhalation anesthetization with isoflurane. Total acquisition time was 30 min for the 1 h, 3 h and 6 h images, and 60 min for 24 h time point. A CT scan was obtained immediately before the acquisition for both anatomical co-registration and attenuation correction. Images were reconstructed using the Inveon™ software supplied by the vendor. Image-derived tumor and kidney uptake was estimated by comparison to a 10% injected dose […] standard introduced into the imaging field of view. The standard was prepared by dilution of 10% of the injected activity to 1 mL with saline. Volumes of interest (VOIs) were drawn with the aid of the CT and confirmed by PET. The contents of the VOIs were integrated and the calculated counts were converted to […] by direct comparison to the aforementioned standard following correction for activity injected.

[2] = test system: LNCaP xenograft tumor-bearing mice; test: Biodistribution studies of 177Lu-labeled ligands in LNCaP xenograft mice; format: in vivo, mouse; conditions: for Max. Tumor Uptake: corresponding 177Lu-labeled compound, 4 h p.i. (a)
Method: as §1
Biodistribution studies of 177Lu-labeled ligands in LNCaP xenograft mice: LNCaP xenograft tumor-bearing mice (5 per time point per compound) were injected intravenously with a bolus injection of 348-851 kBq (9.4-23 μCi) and 37-50 ng ([…]) of each ligand. The mice were sacrificed at 4, 24 and 96 h post injection. A blood sample was removed, and a full biodistribution study was conducted on the following organs (with contents): heart, lungs, liver, small intestine, large intestine, stomach, spleen, pancreas, kidneys, muscle, bone and tumor. Tissues were weighed and counted on a 2470 Wizard^2 Automatic Gamma Counter (Perkin Elmer). Counts were corrected for decay and for activity injected, and tissue uptake was expressed as percent injected dose per gram (% ID/g). Standard error measurement was calculated for each data point.

SMILES | time of maximum uptake in the tumor [1] | maximum uptake in the tumor (image-derived) [1] | tumor uptake (image-derived) ([1]; 24 h post injection) | Max. Tumor Uptake [2] | also measured
O=C(O)CCC(NC(=O)NC(CCCCNC(=O)C(Cc1ccc2ccccc2c1)NC(=O)C1CCC(CNC(=O)CN2CCN(CC(=O)O)CCN(CC(=O)O)CCN(CC(=O)O)CC2)CC1)C(=O)O)C(=O)O (stereo not shown) [66Ga-PSMA-617, metal not drawn, reference compound] | 1 h | 3.1±0.4 % ID/cm^3 |  |  | maximum kidney uptake (image-derived) [1]: 0.4±0.1 % ID/cm^3; kidney uptake (image-derived) ([1]; 24 h post injection): 0.1±0.1 % ID/cm^3
O=C([O-])CN1CCN(CC(=O)[O-])CCN(CC(=O)O)C(Cc2ccc(NC(=S)NCCCC[C@H](NC(=O)CCOCCOCCOCCOCCn3cc(-c4cccc(NC(=O)NCCCC[C@H](NC(=O)N[C@@H](CCC(=O)O)C(=O)O)C(=O)O)c4)nn3)C(=O)N[C@@H](CCCCNC(=O)Cc3ccc(I)cc3)C(=O)O)cc2)CN(CC(=O)[O-])CC1.[66Ga+3] (stereo partly shown) [66Ga-RPS-061] |  |  | 6.1±1.1 % ID/cm^3 |  | kidney uptake (image-derived) ([1]; 1 h post injection): 10.5±2.1 % ID/cm^3
O=C([O-])CN1CCN(CC(=O)[O-])CCN(CC(=O)O)C(Cc2ccc(NC(=S)NCCCC[C@H](NC(=O)CCOCCOCCOCCn3cc(-c4cccc(NC(=O)NCCCC[C@H](NC(=O)N[C@@H](CCC(=O)O)C(=O)O)C(=O)O)c4)nn3)C(=O)N[C@@H](CCCCNC(=O)Cc3ccc(I)cc3)C(=O)O)cc2)CN(CC(=O)[O-])CC1.[66Ga+3] (stereo partly shown) [66Ga-RPS-063] | 6 h | 9.5±2.4 % ID/cm^3 | 7.9±3.0 % ID/cm^3 |  | 
O=C([O-])CN1CCN(CC(=O)[O-])CCN(CC(=O)O)C(Cc2ccc(NC(=S)NCCCC[C@H](NC(=O)CCOCCOCCOCCOCCOCCOCCOCCOCCn3cc(-c4cccc(NC(=O)NCCCC[C@H](NC(=O)N[C@@H](CCC(=O)O)C(=O)O)C(=O)O)c4)nn3)C(=O)N[C@@H](CCCCNC(=O)Cc3ccc(I)cc3)C(=O)O)cc2)CN(CC(=O)[O-])CC1.[66Ga+3] (stereo partly shown) [66Ga-RPS-066] | 3 h | 7.8±0.7 % ID/cm^3 | 5.5±0.4 % ID/cm^3 |  | kidney uptake (image-derived) ([1]; 24 h post injection): 0.2±0.1 % ID/cm^3
O=C(O)CCC(NC(=O)NC(CCCCNC(=O)Nc1cccc(-c2cnnn2CC(=O)NC(CCCCNC(=S)Nc2ccc(CC3CN(CC(=O)O)CCN(CC(=O)O)CCN(CC(=O)O)CCN3CC(=O)O)cc2)C(=O)NC(CCCCNC(=O)Cc2ccc(I)cc2)C(=O)O)c1)C(=O)O)C(=O)O (stereo not shown) [66Ga-RPS-068, metal not drawn] | 3 h | 9.7±2.0 % ID/cm^3 | 8.3±2.8 % ID/cm^3 |  | 
O=C(O)CCC(NC(=O)NC(CCCCNC(=O)Nc1cccc(-c2cnnn2CC(=O)NC(CCCCNC(=S)Nc2ccc(CC3CN(CC(=O)O)CCN(CC(=O)O)CCN(CC(=O)O)CCN3CC(=O)O)cc2)C(=O)NC(CCCCNC(=O)Cc2ccc(I)cc2)C(=O)O)c1)C(=O)O)C(=O)O (stereo not shown) [177Lu-RPS-068, metal not drawn] |  |  |  |  | blood activity (comparison within the series) ([2]; 4 h p.i.): highest blood activity
O=C(O)CC[C@H](NC(=O)N[C@@H](CCCCNC(=O)Nc1cccc(-c2cn(CCOCCOCCOCCOCCC(=O)N[C@@H](CCCCNC(=S)Nc3ccc(CC4CN(CC(=O)O)CCN(CC(=O)O)CCN(CC(=O)O)CCN4CC(=O)O)cc3)C(=O)N[C@@H](CCCCNC(=O)Cc3ccc(I)cc3)C(=O)O)nn2)c1)C(=O)O)C(=O)O (stereo partly drawn) [RPS-061, (((1S)-1-carboxy-5-(3-(3-(1-((17S,20S)-20-carboxy-27-(4-iodophenyl)-15,18,26-trioxo-17-(4-(3-(4-((1,4,7,10-tetrakis(carboxymethyl)-1,4,7,10-tetraazacyclododecan-2-yl)methyl)phenyl)thioureido)butyl)-3,6,9,12-tetraoxa-16,19,25-triazaheptacosyl)-1H-1,2,3-triazol-4-yl)phenyl)ureido)pentyl)carbamoyl)-L-glutamic acid] |  |  |  | 20.4 ± 3.1 % ID/g | 
O=C(O)CC[C@H](NC(=O)N[C@@H](CCCCNC(=O)Nc1cccc(-c2cn(CCOCCOCCOCCC(=O)N[C@@H](CCCCNC(=S)Nc3ccc(CC4CN(CC(=O)O)CCN(CC(=O)O)CCN(CC(=O)O)CCN4CC(=O)O)cc3)C(=O)N[C@@H](CCCCNC(=O)Cc3ccc(I)cc3)C(=O)O)nn2)c1)C(=O)O)C(=O)O (stereo partly drawn) [RPS-063, (((1S)-1-carboxy-5-(3-(3-(1-((14S,17S)-17-carboxy-24-(4-iodophenyl)-12,15,23-trioxo-14-(4-(3-(4-((1,4,7,10-tetrakis(carboxymethyl)-1,4,7,10-tetraazacyclododecan-2-yl)methyl)phenyl)thioureido)butyl)-3,6,9-trioxa-13,16,22-triazatetracosyl)-1H-1,2,3-triazol-4-yl)phenyl)ureido)pentyl)carbamoyl)-L-glutamic acid] |  |  |  | 30.0 ± 6.9 % ID/g | 
O=C(O)CC[C@H](NC(=O)N[C@@H](CCCCNC(=O)Nc1cccc(-c2cn(CCOCCOCCOCCOCCOCCOCCOCCOCCC(=O)N[C@@H](CCCCNC(=S)Nc3ccc(CC4CN(CC(=O)O)CCN(CC(=O)O)CCN(CC(=O)O)CCN4CC(=O)O)cc3)C(=O)N[C@@H](CCCCNC(=O)Cc3ccc(I)cc3)C(=O)O)nn2)c1)C(=O)O)C(=O)O (stereo partly drawn) [RPS-066, (((1S)-1-carboxy-5-(3-(3-(1-((29S,32S)-32-carboxy-39-(4-iodophenyl)-27,30,38-trioxo-29-(4-(3-(4-((1,4,7,10-tetrakis(carboxymethyl)-1,4,7,10-tetraazacyclododecan-2-yl)methyl)phenyl)thioureido)butyl)-3,6,9,12,15,18,21,24-octaoxa-28,31,37-triazanonatriacontyl)-1H-1,2,3-triazol-4-yl)phenyl)ureido)pentyl)carbamoyl)-L-glutamic acid] |  |  |  | 18.7 ± 1.1 % ID/g | 
O=C(O)CC[C@H](NC(=O)N[C@@H](CCCCNC(=O)Nc1cccc(-c2cnnn2CCOCCOCCOCCOCCOCCOCCOCCOCCOCCOCCOCCOCCC(=O)N[C@@H](CCCCNC(=S)Nc2ccc(CC3CN(CC(=O)O)CCN(CC(=O)O)CCN(CC(=O)O)CCN3CC(=O)O)cc2)C(=O)N[C@@H](CCCCNC(=O)Cc2ccc(I)cc2)C(=O)O)c1)C(=O)O)C(=O)O (stereo partly drawn) [RPS-067, (((1S)-1-carboxy-5-(3-(3-(1-((41S,44S)-44-carboxy-51-(4-iodophenyl)-39,42,50-trioxo-41-(4-(3-(4-((1,4,7,10-tetrakis(carboxymethyl)-1,4,7,10-tetraazacyclododecan-2-yl)methyl)phenyl)thioureido)butyl)-3,6,9,12,15,18,21,24,27,30,33,36-dodecaoxa-40,43,49-triazahenpentacontyl)-1H-1,2,3-triazol-5-yl)phenyl)ureido)pentyl)carbamoyl)-L-glutamic acid] |  |  |  | 7.6 ± 1.2 % ID/g | 
O=C(O)CC[C@H](NC(=O)N[C@@H](CCCCNC(=O)Nc1cccc(-c2cn(CCOCCOCCOCCOCCOCCOCCC(=O)N[C@@H](CCCCNC(=S)Nc3ccc(CC4CN(CC(=O)O)CCN(CC(=O)O)CCN(CC(=O)O)CCN4CC(=O)O)cc3)C(=O)N[C@@H](CCCCNC(=O)Cc3ccc(I)cc3)C(=O)O)nn2)c1)C(=O)O)C(=O)O (stereo partly drawn) [RPS-069, (((1S)-1-carboxy-5-(3-(3-(1-((23S,26S)-26-carboxy-33-(4-iodophenyl)-21,24,32-trioxo-23-(4-(3-(4-((1,4,7,10-tetrakis(carboxymethyl)-1,4,7,10-tetraazacyclododecan-2-yl)methyl)phenyl)thioureido)butyl)-3,6,9,12,15,18-hexaoxa-22,25,31-triazatritriacontyl)-1H-1,2,3-triazol-4-yl)phenyl)ureido)pentyl)carbamoyl)-L-glutamic acid] |  |  |  | 17.0 ± 2.1 % ID/g | 
